The values below come from US8969325B2, “TRPV1 antagonists” (AbbVie Inc., priority 2011, dated 2015).

Experiment [1] concerns the target T1, human TRPV1 (Homo sapiens (Human), UniProt Q8NER1). In words: Capsaicin Activation Assay (intracellular Ca2+, FLIPR). Type of experiment: cell-based. The following applies: recombinant HEK293 cells expressing hTRPV1, 50 nM capsaicin. The method, then: (Logan, Utah). Dulbecco's phosphate-buffered saline (D-PBS) (with 1 mg/mL glucose and 3.6 mg/l Na pyruvate, without phenol red), L-glutamine, hygromycin B, and Lipofectamine® were obtained from Life Technologies (Grand Island, N.Y.). G418 sulfate was obtained from Calbiochem-Novabiochem Corp. (San Diego, Calif.). […] (St. Louis, Mo.). […] The cDNA for human TRPV1 (hTRPV1) was isolated by reverse transcriptase-polymerase chain reaction (RT-PCR) from human small intestine poly A+ RNA supplied by Clontech (Palo Alto, Calif.) using primers designed surrounding the initiation and termination codons identical to the published sequences (Hayes et al. […] The resulting cDNA PCR products were subcloned into pCIneo mammalian expression vector (Promega) and fully sequenced using fluorescent dye-terminator reagents (Prism, PerkinElmer Applied Biosystems Division) and a PerkinElmer Applied Biosystems Model 373 DNA sequencer or Model 310 genetic analyzer. Expression plasmids encoding the hTRPV1 cDNA were transfected into HEK293 cells using Lipofectamine®. Forty-eight hours after transfection, the neomycin-resistant cells were selected with growth medium containing 800 μg/mL Geneticin (Life Technologies, formerly Gibco BRL). Surviving individual colonies were isolated and screened for TRPV1 activity. […] Compound stocks, 10 mM, were prepared in DMSO, and diluted serially across a 384-well plate using a Bravo BenchCel workstation (Agilent Technologies, Santa Clara, Calif.). […] On the day prior to the experiment, the recombinant HEK293 cells expressing human TRPV1 (hTRPV1) were removed from tissue culture flasks and plated in growth medium into black-walled clear-bottom 384-well Biocoat™ poly-D-lysine assay plates (BD Biosciences, Bedford, Mass.) using a Multidrop® dispenser (ThermoScientific, Waltham, Mass.). […] Molecular Devices, Sunnyvale, Calif.) was added to each well using the Multidrop® dispenser. […] Fluorescence readings were made at 1 to 5 second intervals over the course of the experimental run.

In experiment [2] the target is T1, human TRPV1. In words: Acid Activation Assay (pH 5.0, intracellular Ca2+, FLIPR). It counts as cell-based. The following applies: percentage of the maximal pH 5.0-induced response remaining; recombinant HEK293 hTRPV1 cells; maximum concentration tested 37.5 μM. The method, then:
Dulbecco's modified Eagle's medium (DMEM) with 4.5 m g/mL D-glucose, fetal bovine serum, L-glutamine, and 2-morpholinoethanesulfonic acid (MES) were purchased from Sigma-Aldrich Co. (St. Louis, Mo.). Dulbecco's phosphate-buffered saline (DPBS) with Ca^2+, Mg^2+, and 1 mg/mL D-glucose (pH 7.4), Geneticin®, 0.25% trypsin-1 mM EDTA, and penicillin-streptomycin were purchased from Invitrogen Corp. (Carlsbad, Calif.). The FLIPR® Calcium 4 assay kit was purchased from Molecular Devices (Sunnyvale, Calif.).
The cDNA for human TRPV1 (hTRPV1) was isolated by reverse transcriptase-polymerase chain reaction (RT-PCR) from human small intestine poly A+ RNA supplied by Clontech (Palo Alto, Calif.) using primers designed surrounding the initiation and termination codons identical to the published sequences (Hayes et al. Pain 2000, 88, 205-215). The resulting cDNA PCR products were subcloned into pCIneo mammalian expression vector (Promega) and fully sequenced using fluorescent dye-terminator reagents (Prism, PerkinElmer Applied Biosystems Division) and a PerkinElmer Applied Biosystems Model 373 DNA sequencer or Model 310 genetic analyzer. Expression plasmids encoding the hTRPV1 cDNA were transfected into HEK293 cells using Lipofectamine®. Forty-eight hours after transfection, the neomycin-resistant cells were selected with growth medium containing 800 μg/mL Geneticin (Life Technologies, formerly Gibco BRL). Surviving individual colonies were isolated and screened for TRPV1 activity. Cells expressing recombinant TRPV1 were maintained at 37° C. in DMEM containing 4 mM L-glutamine, 300 μg/mL G418 (Calbiochem) and 10% fetal bovine serum under a humidified 5% CO2 atmosphere.
The functional activity of compounds at the TRPV1 receptor was determined by measurement of intracellular Ca^2+ levels ([Ca^2+]i) using the Fluorescence Imaging Plate Reader (FLIPR)TETRA®. All compounds were tested over a 12-point one-half-log concentration range with 37.5 μM being the maximum concentration tested. Compound stocks, 10 mM, were prepared in DMSO, and diluted serially across a 384-well plate using a Bravo BenchCel workstation (Agilent Technologies, Santa Clara, Calif.). On the day prior to the experiment, the recombinant HEK293 cells expressing human TRPV1 (hTRPV1) were removed from tissue culture flasks and plated in growth medium into black-walled clear-bottom 384-well Biocoat™ poly-D-lysine assay plates (BD Biosciences, Bedford, Mass.) using a Multidrop® dispenser (ThermoScientific, Waltham, Mass.). On the day of the experiment growth medium was removed, and the no-wash FLIPR® Calcium-4 dye (λEX=470-495 nm, λEM=515-575 nm) was added to each well using the Multidrop® dispenser. The plated cells were incubated for 90-120 min in the dark at 25° C. The test compounds dissolved in DMSO were then added to the plates using an Agilent Bravo workstation (Agilent Technologies Inc., Santa Clara, Calif.). Three minutes later, a pH 5.0 solution was added to each well. Reagents were delivered at a rate of 40 μL/sec, and the final assay volume was 80 μL. Acidic pH solutions were prepared by titration of DPBS/MES with 1 N HCl. The intensity of the fluorescence was captured and digitally transferred to an interfaced PC. The maximum peak measured for the concentration range tested was used to calculate the corresponding peak increase in fluorescence over baseline (relative fluorescence units) which was expressed as the percentage (max % remain) of the maximal pH 5.0-induced response.
Table 1 reports the percentage (max % remain) of the maximal pH 5.0-induced response measured for the compounds tested in the recombinant HEK293 cell assay. Most of the compounds tested inhibited calcium flux only partially following TRPV1 activation by the pH 5.0 solution.

The term IC50 denotes the concentration at which inhibition is half-maximal.

T1 sequence (Q8NER1 whole entry): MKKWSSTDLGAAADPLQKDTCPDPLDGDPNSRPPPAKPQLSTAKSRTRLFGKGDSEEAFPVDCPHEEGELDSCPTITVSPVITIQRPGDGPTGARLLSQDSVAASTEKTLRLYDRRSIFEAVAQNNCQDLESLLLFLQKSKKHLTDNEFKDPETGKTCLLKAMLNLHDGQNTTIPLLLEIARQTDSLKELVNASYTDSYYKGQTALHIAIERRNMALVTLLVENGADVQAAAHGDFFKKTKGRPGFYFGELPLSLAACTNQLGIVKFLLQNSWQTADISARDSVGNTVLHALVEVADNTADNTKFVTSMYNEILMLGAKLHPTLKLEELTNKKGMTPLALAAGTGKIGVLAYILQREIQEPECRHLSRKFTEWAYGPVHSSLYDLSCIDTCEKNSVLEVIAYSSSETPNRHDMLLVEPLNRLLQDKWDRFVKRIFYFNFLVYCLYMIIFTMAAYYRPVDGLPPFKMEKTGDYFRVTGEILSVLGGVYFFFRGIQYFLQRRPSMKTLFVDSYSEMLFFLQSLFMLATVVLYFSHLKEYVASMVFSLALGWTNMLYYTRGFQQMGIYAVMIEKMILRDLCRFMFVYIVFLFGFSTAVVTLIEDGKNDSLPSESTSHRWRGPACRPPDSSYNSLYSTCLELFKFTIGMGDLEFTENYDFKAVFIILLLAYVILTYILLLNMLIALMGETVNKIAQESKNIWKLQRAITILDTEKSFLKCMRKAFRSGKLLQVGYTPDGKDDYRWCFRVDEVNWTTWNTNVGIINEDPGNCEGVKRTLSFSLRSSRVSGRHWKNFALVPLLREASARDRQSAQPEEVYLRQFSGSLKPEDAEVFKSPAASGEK

As for `CCN1C(=O)NCc2c(NC(=O)N[C@@H]3CC(CF)(CF)Oc4cc(Cl)ccc43)cccc21` [Example 162, 1-[(4R)-7-chloro-2,2-bis(fluoromethyl)-3,4-dihydro-2H-chromen-4-yl]-3-(1-ethyl-2-oxo-1,2,3,4-tetrahydroquinazolin-5-yl)urea], the half-maximal inhibitory concentration (IC50) on human TRPV1 [1] amounted to 130 nM. Also, the “human TRPV1 H^+ (max % remain)” value on human TRPV1 [2] was 0%.
`O=C1CCc2ccc(NC(=O)N[C@@H]3CC(CF)(CF)Oc4c3ccc(Cl)c4F)cc2N1` [Example 231, 1-[(4R)-7-chloro-8-fluoro-2,2-bis(fluoromethyl)-3,4-dihydro-2H-chromen-4-yl]-3-(2-oxo-1,2,3,4-tetrahydroquinolin-7-yl)urea]: the IC50 at human TRPV1 [1] is 76 nM. Further, the “human TRPV1 H^+ (max % remain)” value at human TRPV1 [2] amounted to 55%.
As to `CN1C(=O)NCc2c(NC(=O)N[C@@H]3C[C@](C)(CF)Oc4cc(Cl)ccc43)cccc21` [Example 7, 1-[(2R,4R)-7-chloro-2-(fluoromethyl)-2-methyl-3,4-dihydro-2H-chromen-4-yl]-3-(1-methyl-2-oxo-1,2,3,4-tetrahydroquinazolin-5-yl)urea], on human TRPV1 [1], the half-maximal inhibitory concentration (IC50) came to 51 nM. For the same compound, the “human TRPV1 H^+ (max % remain)” value on human TRPV1 [2] is reported as 27%.
As for `O=C1CCc2ccc(NC(=O)N[C@@H]3CC(CF)(CF)Oc4cc(F)ccc43)cc2N1` [Example 250, 1-[(4R)-7-fluoro-2,2-bis(fluoromethyl)-3,4-dihydro-2H-chromen-4-yl]-3-(2-oxo-1,2,3,4-tetrahydroquinolin-7-yl)urea], the concentration for half-maximal inhibition (IC50) on human TRPV1 [1] stood at 53 nM. Moreover, the “human TRPV1 H^+ (max % remain)” value on human TRPV1 [2] worked out at 23%.
The matching figures for `CN1C(=O)CCc2c(NC(=O)N[C@@H]3CC(CF)(CF)Oc4cc(Cl)ccc43)cccc21` [Example 254, 1-[(4R)-7-chloro-2,2-bis(fluoromethyl)-3,4-dihydro-2H-chromen-4-yl]-3-(1-methyl-2-oxo-1,2,3,4-tetrahydroquinolin-5-yl)urea]: 130 nM and 73%.
The corresponding values for `CN1C(=O)CCc2ccc(NC(=O)N[C@@H]3CC(CF)(CF)Oc4ccccc43)cc21` [Example 280, 1-[(4R)-2,2-bis(fluoromethyl)-3,4-dihydro-2H-chromen-4-yl]-3-(1-methyl-2-oxo-1,2,3,4-tetrahydroquinolin-7-yl)urea] are 960 nM and 68%.
The corresponding values for `Cn1c(=O)ccc2c(NC(=O)N[C@H]3CCOc4cc(OC(F)(F)F)ccc43)cccc21` [Example 78, 1-(1-methyl-2-oxo-1,2-dihydroquinolin-5-yl)-3-[(4S)-7-(trifluoromethoxy)-3,4-dihydro-2H-chromen-4-yl]urea] are 91 nM and 46%.
As for `CN1Cc2ccc(NC(=O)N[C@@H]3C[C@](C)(C(F)F)Oc4ccccc43)cc2NC1=O` [Example 207, 1-[(2R,4R)-2-(difluoromethyl)-2-methyl-3,4-dihydro-2H-chromen-4-yl]-3-(3-methyl-2-oxo-1,2,3,4-tetrahydroquinazolin-7-yl)urea], on human TRPV1 [1], the IC50 was determined as 330 nM. Moreover, the “human TRPV1 H^+ (max % remain)” value at human TRPV1 [2] is given as 57%.
`CCC1(CC)C[C@@H](NC(=O)Nc2ccc3c(c2)NC(=O)N(C)C3)c2cc(F)ccc2O1` [Example 189, 1-[(4R)-2,2-diethyl-6-fluoro-3,4-dihydro-2H-chromen-4-yl]-3-(3-methyl-2-oxo-1,2,3,4-tetrahydroquinazolin-7-yl)urea]: the IC50 at human TRPV1 [1] is 200 nM. Moreover, at human TRPV1 [2], the “human TRPV1 H^+ (max % remain)” value is on record as 40%.
With `C[C@@]1(C(F)(F)F)C[C@@H](NC(=O)Nc2ccc3c(c2)NC(=O)CO3)c2ccccc2O1` [Example 125, 1-[(2S,4R)-2-methyl-2-(trifluoromethyl)-3,4-dihydro-2H-chromen-4-yl]-3-(3-oxo-3,4-dihydro-2H-1,4-benzoxazin-6-yl)urea], the IC50 on human TRPV1 [1] was 330 nM. Moreover, the “human TRPV1 H^+ (max % remain)” value on human TRPV1 [2] stood at 96%.
`CN1C(=O)NCc2c(NC(=O)N[C@@H]3C[C@](C)(C(F)F)Oc4ccccc43)cccc21` [Example 12, 1-[(2R,4R)-2-(difluoromethyl)-2-methyl-3,4-dihydro-2H-chromen-4-yl]-3-(1-methyl-2-oxo-1,2,3,4-tetrahydroquinazolin-5-yl)urea]: the IC50 at human TRPV1 [1] stood at 32 nM. At human TRPV1 [2], the “human TRPV1 H^+ (max % remain)” value is given as 28%.
The matching figures for `O=C(Nc1ccc2c(c1)NC(=O)N(CCO)C2)N[C@@H]1CC(CF)(CF)Oc2cc(F)ccc21` [Example 319, 1-[(4R)-7-fluoro-2,2-bis(fluoromethyl)-3,4-dihydro-2H-chromen-4-yl]-3-[3-(2-hydroxyethyl)-2-oxo-1,2,3,4-tetrahydroquinazolin-7-yl]urea]: 5000 nM and 21%.
Consider `CCC1(CC)C[C@@H](NC(=O)Nc2ccc3c(c2)NC(=O)N(C)C3)c2ccc(Cl)c(Cl)c2O1` [Example 182, 1-[(4R)-7,8-dichloro-2,2-diethyl-3,4-dihydro-2H-chromen-4-yl]-3-(3-methyl-2-oxo-1,2,3,4-tetrahydroquinazolin-7-yl)urea], for which the half-inhibitory concentration (IC50) on human TRPV1 [1] worked out at 380 nM. In addition, at human TRPV1 [2], the “human TRPV1 H^+ (max % remain)” value came to 29%.
The matching figures for `CC1(C)C[C@@H](NC(=O)Nc2ccc3c(c2)NC(=O)CO3)c2ccc(Cl)cc2O1` [Example 114, 1-[(4R)-7-chloro-2,2-dimethyl-3,4-dihydro-2H-chromen-4-yl]-3-(3-oxo-3,4-dihydro-2H-1,4-benzoxazin-6-yl)urea]: 56 nM and 99%.
On to `Cn1c(=O)ccc2c(NC(=O)N[C@@H]3CC(C)(C)Oc4c3ccc(F)c4Cl)cccc21` [Example 22, 1-[(4R)-8-chloro-7-fluoro-2,2-dimethyl-3,4-dihydro-2H-chromen-4-yl]-3-(1-methyl-2-oxo-1,2-dihydroquinolin-5-yl)urea], for which the IC50 on human TRPV1 [1] is 15 nM. Besides, the “human TRPV1 H^+ (max % remain)” value on human TRPV1 [2] came out at 47%.
The corresponding values for `CCC1(CC)C[C@@H](NC(=O)Nc2cccc3c2CNC(=O)N3C)c2ccc(Cl)c(Cl)c2O1` [Example 147, 1-[(4R)-7,8-dichloro-2,2-diethyl-3,4-dihydro-2H-chromen-4-yl]-3-(1-methyl-2-oxo-1,2,3,4-tetrahydroquinazolin-5-yl)urea] are 600 nM and 15%.
